Results as given in paper PMC3481155, “AhR activation underlies the CYP1A autoinduction by A-998679 in rats” (Frontiers in Genetics, 2012).
pIC50: −log10 of the molar value.

How the values were obtained:
rat Cyp2c11 = molecular target: T1, rat Cyp2c11 (Rattus norvegicus, UniProt P08683); experiment: Recombinant rat Cyp phenotype profiling, 2C11; assay type: in vitro ADME; settings: 60 min
T1 construct: purchased BD Gentest; host or cells: baculovirus infected insect cells
Description: Identification of the drug metabolizing enzymes (DMEs) of A-998679 was studied in cDNA expressed recombinant enzymes prepared from baculovirus infected insect cells over-expressing rat Cyp isoforms (BD Gentest, Woburn, MA) as listed in Table 2. Incubations were conducted in duplicate using Supersomes. The incubation mixture contained 100 pmol/ml of enzymes, except for Cyp1a1 (200 pmol/ml), 0.1 or 0.21 μM of [^3H]A-998679 in 100 mM phosphate buffer (pH 7.4). Reactions were initiated with the addition of NADPH at a final concentration of 1 mM and incubated at 37°C for 60 min. At the end of the incubation period, the incubations were terminated by the addition of acetonitrile/ethanol (50/50, v/v) solution. Insect control samples lacking expressed enzyme were used as negative control. The degree of metabolism of A-998679 was assessed by percent of parent remaining using the radio-HPLC method described below.
Radiolabeled components from the above assays were profiled following separation by HPLC with on line radioflow detector. The system consisted of an Agilent 1100 Series quaternary pump and autosampler connected to a Packard 500TR flow scintillation detector. The data were processed using the Radiomatic™ Flo-one® software v3.65. The scintillant (Perkin Elmer FLO-SCINT™ III) flow was maintained at 3 ml/min. […]

CYP2C9 = molecular target: T2, CYP2C9 (Homo sapiens, UniProt P11712); experiment: CYP inhibition evaluation in human liver microsomes, CYP2C9 (diclofenac); assay type: in vitro ADME; settings: probe substrate diclofenac
T2 construct: from tissue; host or cells: human liver microsomes
Description: Incubations were performed in human liver microsomes using probe substrate concentrations similar to their corresponding Km values. Enzyme activity was evaluated in the presence of various concentrations of A-998679. The incubations consisted of the test article at varying concentrations (0–30 μM), probe substrate (concentration ~Km, see Table A2), human liver microsomal protein and 1 mM NADPH in 50 mM phosphate buffer at pH 7.4. Relative quantitation of the metabolites was obtained by LC-MS/MS using an ABSciex (Foster City, CA) API3000 or API4000 Qtrap hybrid linear ion trap mass spectrometer equipped with a TurboIonspray source using either PerkinElmer series 200 pumps or Agilent 1100 series pump with a Leap autosampler. Analytes were separated using a Phenomenex Prodigy ODS(3) 5 μm, 50 × 2.0 mm column at 50°C, eluted and detected under the specific conditions listed in Tables A3, A4, and A5. The analyte to internal standard peak area ratios were determined using Analyst 1.4 software (Applied Biosytems, Carlsbad, CA). The peak area ratios observed in the presence of test article were compared to the vehicle control in order to determine percent activity. To determine the IC50, the data were plotted as Log [dose] μM vs. % inhibition, and analyzed with a sigmoidal dose-response (variable slope) fitting equation. […]

[1] = test system: multidrug resistance-associated protein (Mrp3); experiment: Mrp3 expression in rat liver; assay type: in vivo; settings: treated rats; data not shown
Description: All animal experiments were conducted in accordance with the Guiding Principles in the Use of Animals in Toxicology (http://www.toxicology.org/ai/air/air6.asp) and were approved by Abbott's Institutional Animal Care and Use Committee (IACUC). Male Sprague-Dawley rats [Crl:CD®(SD)IGS BR], weighing ~250 g at study initiation were obtained from Charles River Laboratories, Inc. (Wilmington, MA). Rats were housed singly in ventilated, stainless steel, wire-bottom hanging cages and fed non-certified Rodent Chow (Harlan Labs, Madison, WI), and water ad libitum and acclimated for at least 5 days after arrival. […] Serum clinical chemistry parameters were quantified using an Aeroset Clinical Chemistry Analyzer (Abbott Laboratories, Abbott Park, IL) and included alanine amino transferase (ALT), aspartate amino transferase (AST), gamma glutamyltransferase (GGT), and alkaline phosphatase (ALP) activities.
Frozen liver or jejunum were immediately added to 4 ml of TRIzol reagent (Invitrogen Life Technologies) and homogenized using a Polytron 300D homogenizer (Brinkman Instruments, Westbury, NY). […] Nucleic acid concentration was determined by OD 260 nm (Smart-Spec, Bio-Rad Laboratories, Hercules, CA), and RNA integrity was evaluated using an Agilent 2100 bioanalyzer (Agilent Technologies, Foster City, CA). […]

[2] = 5-day rat exploratory toxicology study (liver weight, clinical chemistry, histopathology); assay type: in vivo; settings: 5 days
Description: All animal experiments were conducted in accordance with the Guiding Principles in the Use of Animals in Toxicology (http://www.toxicology.org/ai/air/air6.asp) and were approved by Abbott's Institutional Animal Care and Use Committee (IACUC). Male Sprague-Dawley rats [Crl:CD®(SD)IGS BR], weighing ~250 g at study initiation were obtained from Charles River Laboratories, Inc. (Wilmington, MA). Rats were housed singly in ventilated, stainless steel, wire-bottom hanging cages and fed non-certified Rodent Chow (Harlan Labs, Madison, WI), and water ad libitum and acclimated for at least 5 days after arrival. Rats were randomly assigned to various treatment groups (3 rats/group) and were dosed once daily by oral gavage with vehicle (0.2% hydroxypropylmethylcellulose at a dose volume of 10 ml/kg) or with 30, 100, or 200 mg/kg of A-998679. All rats were fasted overnight after their last dose, weighed and sacrificed under isoflurane anesthesia. For histopathological evaluation, liver, heart, kidney, spleen, bone (sternum) with marrow, gastrointestinal tract (duodenum with pancreas, jejunum, ileum, cecum, and colon), thymus, and lung were fixed in formalin, routinely processed, and embedded in paraffin. Paraffin sections (4 μm) were stained with hematoxylin and eosin. Liver and small intestine (jejunum) were also flash frozen in liquid nitrogen and stored at −80°C until processing for gene expression profiling. Serum clinical chemistry parameters were quantified using an Aeroset Clinical Chemistry Analyzer (Abbott Laboratories, Abbott Park, IL) and included alanine amino transferase (ALT), aspartate amino transferase (AST), gamma glutamyltransferase (GGT), and alkaline phosphatase (ALP) activities.

T1 sequence (P08683 whole entry): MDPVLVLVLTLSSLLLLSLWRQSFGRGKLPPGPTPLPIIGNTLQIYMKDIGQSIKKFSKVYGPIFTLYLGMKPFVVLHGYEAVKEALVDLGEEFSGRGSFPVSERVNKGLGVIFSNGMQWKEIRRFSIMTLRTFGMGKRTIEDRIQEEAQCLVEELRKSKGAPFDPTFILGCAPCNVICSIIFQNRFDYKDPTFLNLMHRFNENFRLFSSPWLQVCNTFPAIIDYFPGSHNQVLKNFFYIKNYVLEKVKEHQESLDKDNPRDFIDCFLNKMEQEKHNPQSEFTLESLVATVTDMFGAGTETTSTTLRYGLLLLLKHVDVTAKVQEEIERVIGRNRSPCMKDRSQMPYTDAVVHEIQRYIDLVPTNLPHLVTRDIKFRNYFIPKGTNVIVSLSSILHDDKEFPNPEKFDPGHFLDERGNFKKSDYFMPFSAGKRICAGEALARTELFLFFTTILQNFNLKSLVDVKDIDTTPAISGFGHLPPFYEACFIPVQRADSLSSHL
T2 sequence (P11712 whole entry): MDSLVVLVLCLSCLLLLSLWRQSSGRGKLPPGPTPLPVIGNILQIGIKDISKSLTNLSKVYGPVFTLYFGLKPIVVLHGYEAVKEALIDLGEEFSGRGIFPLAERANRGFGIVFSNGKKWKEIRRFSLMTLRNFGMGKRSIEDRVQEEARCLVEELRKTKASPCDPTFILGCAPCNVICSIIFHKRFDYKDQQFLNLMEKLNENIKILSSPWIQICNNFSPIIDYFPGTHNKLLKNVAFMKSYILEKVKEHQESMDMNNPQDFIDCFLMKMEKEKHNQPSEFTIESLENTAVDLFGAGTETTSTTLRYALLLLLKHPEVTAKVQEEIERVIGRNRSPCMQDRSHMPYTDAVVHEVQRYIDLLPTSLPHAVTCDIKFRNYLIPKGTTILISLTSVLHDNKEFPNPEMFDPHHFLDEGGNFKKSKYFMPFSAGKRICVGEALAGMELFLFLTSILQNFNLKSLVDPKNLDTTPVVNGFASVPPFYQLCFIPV

N#Cc1cccc(-c2noc(-c3cccnc3)n2)c1 [A-998679, 3-(5-pyridin-3-yl-1,2,4-oxadiazol-3-yl) benzonitrile]
% parent remaining (rat Cyp2c11; recombinant rat Cyp 2C11, 0.10 μM): 78.1% | % parent remaining (rat Cyp2c11; recombinant rat Cyp 2C11, 0.21 μM): 28.8% | pIC50 (CYP2C9): < 4.52 | expression of Mrp3 in liver [1]: increased expression | increase in relative liver weight ([2]; 200 mg/kg/day): ~ 25% | clinical chemistry parameters ([2]; 30-200 mg/kg/day): No significant changes | histopathology ([2]; 30-200 mg/kg/day): No significant changes | change in relative liver weight ([2]; lower doses (30 and 100 mg/kg/day)): no change
